Reference: patent US20040259926A1, “3-Aryloxy and 3-heteroaryloxy substituted benzo[b]thiophenes as therapeutic agents” (priority 2003, published 2004)

target: T1, PI3Kγ (recombinant p101/p110γ protein) (Homo sapiens, UniProt P48736); assay: PI3Kγ In Vitro Kinase Assay; type: biochemical; conditions: purified recombinant p101/p110γ with G protein β1/γ2 subunits; 20 μM ATP, [γ-32P-ATP]; 25 μM PIP2 lipid micelles; 20 minutes at room temperature
T1 construct: HA; made in house; host or cells: Spodoptera frugiperda (Sf9) cells, baculovirus co-infection
Procedure, shortened: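 Baculovirus/Sf9-expressed p101/p110γ (~2.7 nM) with Gβ1/γ2 (~57.7 nM) in HEPES/NaCl/EGTA/DTT buffer; 20 μM ATP plus [γ-32P]ATP, micelles of 25 μM PIP2, 300 μM PE, 10 mM MgCl2. Reactions ran 20 minutes at room temperature; radiolabelled PIP3 captured on glass-fibre filters and counted for IC50.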

T1 sequence (P48736 whole entry, species assumed): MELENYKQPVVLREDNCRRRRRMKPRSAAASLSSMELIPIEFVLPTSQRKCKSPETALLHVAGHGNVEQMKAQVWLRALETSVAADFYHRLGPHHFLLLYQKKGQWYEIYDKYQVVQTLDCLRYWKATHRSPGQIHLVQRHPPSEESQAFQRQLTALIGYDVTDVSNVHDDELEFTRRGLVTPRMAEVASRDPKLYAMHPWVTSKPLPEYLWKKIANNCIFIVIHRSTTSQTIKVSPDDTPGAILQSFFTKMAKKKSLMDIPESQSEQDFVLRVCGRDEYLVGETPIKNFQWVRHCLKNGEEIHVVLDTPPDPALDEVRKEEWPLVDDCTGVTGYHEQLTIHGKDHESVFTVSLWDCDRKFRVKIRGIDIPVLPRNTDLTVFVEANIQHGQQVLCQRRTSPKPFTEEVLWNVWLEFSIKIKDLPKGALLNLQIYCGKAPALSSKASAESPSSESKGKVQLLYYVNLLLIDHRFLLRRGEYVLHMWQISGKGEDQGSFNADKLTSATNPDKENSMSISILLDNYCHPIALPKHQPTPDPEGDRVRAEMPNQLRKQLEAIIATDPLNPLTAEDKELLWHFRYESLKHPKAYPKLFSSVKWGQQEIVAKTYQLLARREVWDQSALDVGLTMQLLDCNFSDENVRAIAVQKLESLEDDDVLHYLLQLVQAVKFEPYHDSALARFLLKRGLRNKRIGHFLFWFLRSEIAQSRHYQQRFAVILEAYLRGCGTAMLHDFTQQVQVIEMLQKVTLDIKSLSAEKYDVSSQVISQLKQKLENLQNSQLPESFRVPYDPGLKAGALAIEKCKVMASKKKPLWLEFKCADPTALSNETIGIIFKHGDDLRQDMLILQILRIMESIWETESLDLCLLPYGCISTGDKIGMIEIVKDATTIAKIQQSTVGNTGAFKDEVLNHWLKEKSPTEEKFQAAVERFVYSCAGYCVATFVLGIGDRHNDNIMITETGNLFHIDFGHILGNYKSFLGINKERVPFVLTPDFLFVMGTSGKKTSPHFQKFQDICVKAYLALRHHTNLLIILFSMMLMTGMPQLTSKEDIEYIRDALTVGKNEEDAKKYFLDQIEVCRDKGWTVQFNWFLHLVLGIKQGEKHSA
T1 sequence (Q8WYR1 whole entry partner, species assumed): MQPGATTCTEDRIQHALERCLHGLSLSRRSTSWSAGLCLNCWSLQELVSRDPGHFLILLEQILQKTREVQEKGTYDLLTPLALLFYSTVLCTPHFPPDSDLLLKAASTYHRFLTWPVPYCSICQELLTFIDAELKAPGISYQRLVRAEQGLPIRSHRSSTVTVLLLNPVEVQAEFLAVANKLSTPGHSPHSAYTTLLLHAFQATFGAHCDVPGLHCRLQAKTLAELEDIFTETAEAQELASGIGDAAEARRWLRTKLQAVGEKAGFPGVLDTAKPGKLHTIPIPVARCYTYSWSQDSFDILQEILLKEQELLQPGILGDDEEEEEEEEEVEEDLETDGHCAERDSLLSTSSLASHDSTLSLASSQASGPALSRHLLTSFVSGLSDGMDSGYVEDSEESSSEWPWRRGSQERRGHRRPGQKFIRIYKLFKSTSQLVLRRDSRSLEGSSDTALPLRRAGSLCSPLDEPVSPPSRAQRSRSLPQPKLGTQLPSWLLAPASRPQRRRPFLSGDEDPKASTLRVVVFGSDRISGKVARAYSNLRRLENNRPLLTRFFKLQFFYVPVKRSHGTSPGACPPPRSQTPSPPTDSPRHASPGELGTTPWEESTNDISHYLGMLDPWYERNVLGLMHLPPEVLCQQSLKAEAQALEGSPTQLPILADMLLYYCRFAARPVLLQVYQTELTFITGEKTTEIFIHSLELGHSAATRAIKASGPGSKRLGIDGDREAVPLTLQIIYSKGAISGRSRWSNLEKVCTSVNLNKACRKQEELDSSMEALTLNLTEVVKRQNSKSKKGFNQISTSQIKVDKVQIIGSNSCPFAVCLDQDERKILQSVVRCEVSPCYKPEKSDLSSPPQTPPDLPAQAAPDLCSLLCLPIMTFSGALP

Row | IC50 | SMILES
1 | 8 nM | COc1cc2c(Oc3ccc(C4CCC5(CC4)OCCO5)cc3)c(C(=O)Nc3nn[nH]n3)sc2cc1C [Example B.68, 3-[4-(1,4-Dioxa-spiro[4.5]dec-8-yl)-phenoxy]-5-methoxy-6-methyl-benzo[b]thiophene-2-carboxylic acid (2H-tetrazol-5-yl)-amide]
2 | 4 nM | COc1cc2c(Oc3ccc(C4CCS(=O)(=O)CC4)cc3)c(C(=O)Nc3nn[nH]n3)sc2cc1C [Example B.69, 3-[4-(1,1-Dioxo-hexahydro-1λ^6-thiopyran-4-yl)-phenoxy]-5-methoxy-6-methyl-benzo[b]thiophene-2-carboxylic acid (2H-tetrazol-5-yl)-amide]
3 | 17 nM | COc1cc2c(Oc3ccc(C4CCCCC4)cc3[N+](=O)[O-])c(C(=O)Nc3nn[nH]n3)sc2cc1C [Example B.70, 5-Methoxy-6-methyl-3-(2-nitro-4-cyclohexyl-phenoxy)-benzo[b]thiophene-2-carboxylic acid (2H-tetrazol-5-yl)-amide]
4 | 275 nM | COc1cc2c(Oc3ccc(C4CCCCC4)cc3N)c(C(=O)Nc3nn[nH]n3)sc2cc1C [Example B.71, 3-(2-Amino-4-cyclohexyl-phenoxy)-5-methoxy-6-methyl-benzo[b]thiophene-2-carboxylic acid (2H-tetrazol-5-yl)-amide]
5 | 160 nM | COc1cc2c(Oc3ccc(C4CCCCC4)cc3OC)c(C(=O)Nc3nn[nH]n3)sc2cc1C [Example B.72, 3-(2-Methoxy-4-cyclohexyl-phenoxy)-5-methoxy-6-methyl-benzo[b]thiophene-2-carboxylic acid (2H-tetrazol-5-yl)-amide]
6 | 13 nM | COc1cc2c(Oc3ccc(C4CCCCC4)cc3Cl)c(C(=O)Nc3nn[nH]n3)sc2cc1C [Example B.73, 3-(2-Chloro-4-cyclohexyl-phenoxy)-5-methoxy-6-methyl-benzo[b]thiophene-2-carboxylic acid (2H-tetrazol-5-yl)-amide]
7 | 12 nM | COc1cc2c(Oc3ccc(C4CCCCC4)cc3Br)c(C(=O)Nc3nn[nH]n3)sc2cc1C [Example B.74, 3-(2-Bromo-4-cyclohexyl-phenoxy)-5-methoxy-6-methyl-benzo[b]thiophene-2-carboxylic acid (2H-tetrazol-5-yl)-amide]
8 | 6 nM | COc1cc2c(Oc3ccc(C4CCCCC4)cc3C#N)c(C(=O)Nc3nn[nH]n3)sc2cc1C [Example B.75, 3-(2-Cyano-4-cyclohexyl-phenoxy)-5-methoxy-6-methyl-benzo[b]thiophene-2-carboxylic acid (2H-tetrazol-5-yl)-amide]
9 | 185 nM | COc1cc2sc(C(=O)Nc3nnn[nH]3)c(OCCc3ccccc3)c2cc1OC [Example C.1, 5,6-Dimethoxy-3-phenethyloxy-benzo[b]thiophene-2-carboxylic acid (1H-tetrazol-5-yl)-amide]
10 | 346 nM | COc1cc2sc(C(=O)Nc3nnn[nH]3)c(OCc3cccc(Br)c3)c2cc1OC [Example C.2, 3-(3-Bromo-benzyloxy)-5,6-dimethoxy-benzo[b]thiophene-2-carboxylic acid (1H-tetrazol-5-yl)-amide]
11 | 3630 nM | COc1cc2sc(C(=O)Nc3nnn[nH]3)c(OCc3ccc(F)c(F)c3)c2cc1OC [Example C.3, 3-(3,4-Difluoro-benzyloxy)-5,6-dimethoxy-benzo[b]thiophene-2-carboxylic acid (1H-tetrazol-5-yl)-amide]
12 | 2650 nM | COc1cc2sc(C(=O)Nc3nnn[nH]3)c(OCc3ccc(-c4ccccc4)cc3)c2cc1OC [Example C.4, 3-(Biphenyl-4-ylmethoxy)-5,6-dimethoxy-benzo[b]thiophene-2-carboxylic acid (1H-tetrazol-5-yl)-amide]
13 | 1620 nM | COc1cc2sc(C(=O)Nc3nnn[nH]3)c(OCc3cccc(C(F)(F)F)c3)c2cc1OC [Example C.5, 5,6-Dimethoxy-3-(3-trifluoromethyl-benzyloxy)-benzo[b]thiophene-2-carboxylic acid (1H-tetrazol-5-yl)-amide]
14 | 1520 nM | COc1cc(COc2c(C(=O)Nc3nnn[nH]3)sc3cc(OC)c(OC)cc23)cc(OC)c1 [Example C.6, 3-(3,5-Dimethoxy-benzyloxy)-5,6-dimethoxy-benzo[b]thiophene-2-carboxylic acid (1H-tetrazol-5-yl)-amide]
15 | 986 nM | COc1cc2sc(C(=O)Nc3nnn[nH]3)c(OCc3ccc(C(C)(C)C)cc3)c2cc1OC [Example C.7, 3-(4-tert-Butyl-benzyloxy)-5,6-dimethoxy-benzo[b]thiophene-2-carboxylic acid (1H-tetrazol-5-yl)-amide]
16 | 564 nM | COc1cc2sc(C(=O)Nc3nnn[nH]3)c(OCc3c(F)ccc(F)c3F)c2cc1OC [Example C.8, 5,6-Dimethoxy-3-(2,3,6-trifluoro-benzyloxy)-benzo[b]thiophene-2-carboxylic acid (1H-tetrazol-5-yl)-amide]

Row | IC50 | SMILES
17 | 1800 nM | COc1cc2sc(C(=O)Nc3nnn[nH]3)c(O[C@H](C)Cc3ccccc3)c2cc1OC [Example C.10, 5,6-Dimethoxy-3-((R)-1-methyl-2-phenyl-ethoxy)-benzo[b]thiophene-2-carboxylic acid (1H-tetrazol-5-yl)-amide]
18 | 1480 nM | COc1cc2sc(C(=O)Nc3nnn[nH]3)c(OCc3cccnc3)c2cc1OC [Example C.11, 5,6-Dimethoxy-3-(pyridin-3-ylmethoxy)-benzo[b]thiophene-2-carboxylic acid (1H-tetrazol-5-yl)-amide]
19 | 1160 nM | COc1cc2sc(C(=O)Nc3nnn[nH]3)c(OCc3cccc(Oc4ccccc4)c3)c2cc1OC [Example C.12, 5,6-Dimethoxy-3-(3-phenoxy-benzyloxy)-benzo[b]thiophene-2-carboxylic acid (1H-tetrazol-5-yl)-amide]
20 | 970 nM | COc1cc2sc(C(=O)Nc3nnn[nH]3)c(OCC(c3ccccc3)c3ccccc3)c2cc1OC [Example C.13, 3-(2,2-Diphenyl-ethoxy)-5,6-dimethoxy-benzo[b]thiophene-2-carboxylic acid (1H-tetrazol-5-yl)-amide]
21 | 885 nM | COc1cc2sc(C(=O)Nc3nnn[nH]3)c(OCc3ccccn3)c2cc1OC [Example C.14, 5,6-Dimethoxy-3-(pyridin-2-ylmethoxy)-benzo[b]thiophene-2-carboxylic acid (1H-tetrazol-5-yl)-amide]
22 | 757 nM | COc1cc2sc(C(=O)Nc3nnn[nH]3)c(OCCc3cccc4ncccc34)c2cc1OC [Example C.15, 5,6-Dimethoxy-3-(2-quinolin-5-yl-ethoxy)-benzo[b]thiophene-2-carboxylic acid (1H-tetrazol-5-yl)-amide]
23 | 740 nM | COc1ccc(CCOc2c(C(=O)Nc3nnn[nH]3)sc3cc(OC)c(OC)cc23)cc1OC [Example C.16, 3-[2-(3,4-Dimethoxy-phenyl)-ethoxy]-5,6-dimethoxy-benzo[b]thiophene-2-carboxylic acid (1H-tetrazol-5-yl)-amide]
24 | 450 nM | COc1cc2sc(C(=O)Nc3nnn[nH]3)c(OCc3ccncc3)c2cc1OC [Example C.18, 5,6-Dimethoxy-3-(pyridin-4-ylmethoxy)-benzo[b]thiophene-2-carboxylic acid (1H-tetrazol-5-yl)-amide]
25 | 450 nM | COc1cc2sc(C(=O)Nc3nnn[nH]3)c(OCc3cccc(N(C)C)c3)c2cc1OC [Example C.19, 3-(3-Dimethylamino-benzyloxy)-5,6-dimethoxy-benzo[b]thiophene-2-carboxylic acid (1H-tetrazol-5-yl)-amide]
26 | 410 nM | COc1cc2sc(C(=O)Nc3nnn[nH]3)c(OCc3ccccc3OCC3CCCCC3)c2cc1OC [Example C.20, 3-(2-Cyclohexylmethoxy-benzyloxy)-5,6-dimethoxy-benzo[b]thiophene-2-carboxylic acid (1H-tetrazol-5-yl)-amide]
27 | 300 nM | COc1cc2sc(C(=O)Nc3nnn[nH]3)c(OCCc3cccc4c3CCCC4)c2cc1OC [Example C.21, 5,6-Dimethoxy-3-[2-(5,6,7,8-tetrahydro-naphthalen-1-yl)-ethoxy]-benzo[b]thiophene-2-carboxylic acid (1H-tetrazol-5-yl)-amide]
28 | 290 nM | COc1cc2sc(C(=O)Nc3nnn[nH]3)c(OCc3cccc4ccccc34)c2cc1OC [Example C.22, 5,6-Dimethoxy-3-(naphthalen-1-ylmethoxy)-benzo[b]thiophene-2-carboxylic acid (1H-tetrazol-5-yl)-amide]
29 | 255 nM | COc1cc2sc(C(=O)Nc3nnn[nH]3)c(OC[C@@H](C)c3ccccc3)c2cc1OC [Example C.23, 5,6-Dimethoxy-3-((S)-2-phenyl-propoxy)-benzo[b]thiophene-2-carboxylic acid (1H-tetrazol-5-yl)-amide]
30 | 255 nM | COc1cc2sc(C(=O)Nc3nnn[nH]3)c(OCc3cccc4c3CCCC4)c2cc1OC [Example C.24, 5,6-Dimethoxy-3-(5,6,7,8-tetrahydro-naphthalen-1-ylmethoxy)-benzo[b]thiophene-2-carboxylic acid (1H-tetrazol-5-yl)-amide]
31 | 230 nM | COc1cc2sc(C(=O)Nc3nnn[nH]3)c(OCc3cccc(OC4CCCC4)c3)c2cc1OC [Example C.25, 3-(3-Cyclopentyloxy-benzyloxy)-5,6-dimethoxy-benzo[b]thiophene-2-carboxylic acid (1H-tetrazol-5-yl)-amide]
32 | 215 nM | COc1cc2sc(C(=O)Nc3nnn[nH]3)c(OCc3cccc(OCC4CCCCC4)c3)c2cc1OC [Example C.26, 3-(3-Cyclohexylmethoxy-benzyloxy)-5,6-dimethoxy-benzo[b]thiophene-2-carboxylic acid (1H-tetrazol-5-yl)-amide]

Row | SMILES | IC50
33 | COc1cc2sc(C(=O)Nc3nnn[nH]3)c(OCCc3cccc4ccccc34)c2cc1OC [Example C.17, 5,6-Dimethoxy-3-(2-naphthalen-1-yl-ethoxy)-benzo[b]thiophene-2-carboxylic acid (1H-tetrazol-5-yl)-amide] | 715 nM
